Read-outs that look alike come from different tables or passages of the source.

Results on three molecules are retold here after PMC11944515, “Host-Mediated Antimicrobial Effects and NLRP3 Inflammasome Modulation by Caulerpin and Its Derivatives in Macrophage Models of Mycobacterial Infections” (Microorganisms, 2025).

One data set relates to TNF-α. In words: TNF-α production in M. smegmatis-infected RAW 264.7 cells (ELISA). The format is cell-based, murine. The conditions noted are these: 15 μM, 24 h, M. smegmatis MOI 1:1, vs infected control. The method, then: (§1) IL-1β, IL-10, and TNF-α levels in the culture supernatant were determined by sandwich enzyme-linked immunosorbent assay as per the manufacturer’s instructions. Optical density was read at 450 nm using a microplate spectrophotometer (microplate reader EL800, BioTek, Winooski, VT, USA).

Data set [1] deals with IFN-γ, IL-6, and TNF-α levels. Set-up: method as in PMID 30205459. The conditions noted are these: doses of 40 mg/kg, murine model of peritonitis and ulcerative colitis; cited from earlier work.
For a further data set, the system named is RAW 264.7 cells. Kind of data set: Direct effects on RAW 264.7 cell viability (MTT). Format: cell-based, murine. The method, then: The direct effects of CP and its analogues on RAW 264.7 viability were evaluated using the MTT method. RAW 264.7 cells were seeded at 1 × 10^4 cells/well (for 24 h incubation) and 5 × 10^3 cells/well (for 48 h incubation) and incubated overnight to allow adhesion. The culture medium was carefully aspirated and replaced with 100 μL DMEM plus 100 μL of test compound solutions, yielding final concentrations ranging from 3.25 to 30 µM (DMSO 1%, v/v). After 24 or 48 h of exposure to test compounds, cells were incubated with MTT (0.5 mg/mL) for 3 h. The resulting formazan crystals were dried, dissolved in DMSO, and absorbance was measured at 570 nm using a microplate reader (EL800, BioTek, Winooski, VT, USA). The precipitated purple formazan crystals were directly proportional to the number of metabolically active viable cells. The cell viability was then calculated as: Cell viability (%) = (Sample absorbance/Control absorbance) × 100. Data were expressed as mean of cell viability ± standard error of the mean from three to four independent experiments performed in triplicate.

For data set [2], the system named is Mycobacterium smegmatis mc2155. In words: M. smegmatis susceptibility by CFU enumeration. The format is cell-based. The conditions noted are these: 24 h incubation, CFU.
The test system of a further data set is NLRP3 inflammasome. In words: NLRP3 evaluation by flow cytometry in M. smegmatis-infected RAW 264.7 cells. The conditions noted are these: 15 μM, 24 h. Format: cell-based, murine. Here is the method: Cells were placed in a 96-well plate (U bottom) 24 h after treatment in culture. Then, cells were fixed by Cytofix (BD Cytofix™, Franklin Lakes, NJ, USA) and permeabilized by Perm Buffer (BD Phosflow™, San Diego, CA, USA) for 30 min each. Cells were subsequently labeled with an unconjugated anti-NLRP3 antibody, according to the manufacturer’s instructions (BD Biosciences, San Diego, CA, USA). Finally, anti-rat IgG2a (PE) was added for NLRP3 analysis and cells were suspended in PBS and evaluated in a BD Accuri C6 Plus flow cytometer.
First, macrophages were visualized using size (FSC) and granularity (SSC) parameters, and a gate was performed in the cell population. The macrophages were then analyzed by measuring the median fluorescence intensity (MFI) corresponding to antibody labeling. MFI data were normalized to the control group, which was set to 100%.

In the next data set the test system is M. tuberculosis H37Ra. In words: M. tuberculosis susceptibility by CFU enumeration. Format: cell-based, Mycobacterium tuberculosis. The conditions noted are these: H37Ra, 48 h, CFU. The method, then:
Next, CP, CA, and DE were diluted in Middlebrook 7H9 plus 10% OADC for the cellular susceptibility assay with M. tuberculosis H37Ra to yield concentrations up to 15 µM, 30 µM, and 15 µM, respectively. RIF at 0.03 µM was used as a positive control. The final DMSO concentration in all wells was 2.5%. The M. tuberculosis suspension was diluted in 7H9 plus 10% OADC to achieve an optical density of 0.006 at 595 nm, and 100 μL was then added to each well. Plates were covered, sealed with parafilm, and incubated at 37 °C for 48 h. After incubation, aliquots were removed, diluted, and plated in Middlebrook 7H10 agar plus 10% OADC. Plates were incubated at 37 °C for 4 weeks, and CFU were counted. CFU numbers were expressed as log10(CFU/mL).

For data set [3], the system named is Vero E6 cells. The conditions noted are these: cited from earlier work.
The test system of data set [4] is IL-8, IL-6, and TNF-α cytokines. Also on record: method as in PMID 34884957. The conditions noted are these: pretreatment, compared with untreated control; cited from earlier work.
For another data set, the system named is HepG2 cells. Set-up: method as in PMID 32579063. The conditions noted are these: 15.80 to 500 µg/mL over 24 h; cited from earlier work.
The test system of data set [5] is Vero E6 cells. Kind of data set: Cytotoxicity on Vero E6 cells (MTT). Format: cell-based, monkey. The conditions noted are these: 24 h; for effect on Vero E6 cell viability: 30 to 120 µM, MTT; for IC50: Primates, Vero C1008, estimated. The method, then:
Cytotoxicity was evaluated using the MTT method. For this purpose, two cell lines were tested: Vero E6 and HepG2. Both cell lines were seeded at 1 × 10^4 cells/well in 96-well microtiter plates and incubated overnight to adhere. The culture medium was carefully aspirated and replaced with 100 µL DMEM plus 100 µL of test compound solutions (CP, CA, and DE), yielding final concentrations ranging from 30 to 120 µM (1% DMSO, v/v). Cells were incubated with test compounds for 24 h at 37 °C in a 5% CO2 atmosphere. MTT solution (0.5 mg/mL) was subsequently added, and cells were incubated for an additional 3 h. The resulting formazan crystals were dried at room temperature for 24 h and dissolved in DMSO. Absorbance was measured at 570 nm (microplate reader EL800, BioTek, Winooski, VT, USA). Cell viability was calculated as previously described in the RAW 264.7 cell viability assay section.

For another data set, the system named is IL-1β. Kind of data set: IL-1β production in M. smegmatis-infected RAW 264.7 cells (ELISA). Format: cell-based, murine. The conditions noted are these: 15 μM, 24 h, M. smegmatis MOI 1:1, vs infected control. Here is the method:
as §1

With `COC(=O)/C1=C/c2c([nH]c3ccccc23)/C(C(=O)OC)=C\c2c1[nH]c1ccccc21` [CP, Caulerpin], the “reduction in TNF-α production” value in the data set with TNF-α is given as 34.07%. Further, the “effect on IFN-γ, IL-6, and TNF-α levels” value in data set [1] is “reduced IFN-γ, IL-6, and TNF-α levels”. Moreover, the “effect on RAW 264.7 cell viability” value was “affected cell viability at the concentration of 30 μM” in the data set with RAW 264.7 cells (24 h incubation, 3.25 to 30 µM); “affected cell viability at the 2 highest concentrations tested, 15 and 30 μM” in the data set on RAW 264.7 cells (48 h incubation). Moreover, the “inhibitory concentration against M. smegmatis” value in data set [2] was “higher than 15 μM”. The “reduction of NLRP3 expression (MFI)” value in the data set on NLRP3 inflammasome was 29.12%. Besides, in the data set on M. tuberculosis H37Ra, the “inhibitory concentration against M. tuberculosis” value is recorded as “greater than 15 μM”. The “effect on Vero E6 viability” value with Vero E6 cells [3] (589.3 µg/mL) was “maintained their viability”; with Vero E6 cells [3] (50 to 1000 µM for 72 h), “no effect on Vero E6 viability”. Also, in data set [4], the “effect on IL-8, IL-6, and TNF-α expression” value was “reduced expression of IL-8, IL-6, and TNF-α cytokines”. For the same molecule, the “anticancer activity in HepG2 cells” value in the data set on HepG2 cells is “exhibited anticancer activity in HepG2 cells”. Besides, the “effect on Vero E6 cell viability” value with Vero E6 cells [5] is on record as “did not significantly reduce cell viability”. Besides, the IC50 with Vero E6 cells [5] was over 120 µM. In addition, the “reduction in IL-1β production” value in the data set on IL-1β was found to be 69.35%.

For the molecule `O=C(O)C1=Cc2c([nH]c3ccccc23)C(C(=O)O)=Cc2c1[nH]c1ccccc21` [CA, caulerpinic acid], the “effect on RAW 264.7 cell viability” value in the data set on RAW 264.7 cells (24 h incubation, 3.25 to 30 µM) was “did not affect viability at any of the concentrations tested”; in the data set with RAW 264.7 cells (48 h incubation), “did not affect cell viability at any concentration evaluated”. Also, the “inhibitory concentration against M. smegmatis” value in data set [2] is “higher than 30 μM”. Moreover, the “inhibitory concentration against M. tuberculosis” value with M. tuberculosis H37Ra is “greater than 30 μM”. For the same molecule, the “effect on Vero E6 cell viability” value in the data set with Vero E6 cells [5] is on record as “did not significantly reduce cell viability”. In the data set with Vero E6 cells [5], the IC50 is over 120 µM.

Regarding `CCOC(=O)/C1=C/c2c([nH]c3ccccc23)/C(C(=O)OCC)=C\c2c1[nH]c1ccccc21` [DE, (6E,13E)-diethyl 5,12-dihydrocycloocta[1,2-b:5,6-b′]diindole-6,13-dicarboxylate], the “reduction in TNF-α production” value with TNF-α stood at 56.94%. Also, the “effect on RAW 264.7 cell viability” value with RAW 264.7 cells (24 h incubation, 3.25 to 30 µM) is reported as “affected cell viability at the concentration of 30 μM”; in the data set with RAW 264.7 cells (48 h incubation), “did not affect cell viability at any concentration evaluated”. Further, the “inhibitory concentration against M. smegmatis” value in data set [2] was “higher than 15 μM”. In addition, the “reduction of NLRP3 expression (MFI)” value with NLRP3 inflammasome was 39.81%. Moreover, in the data set on M. tuberculosis H37Ra, the “inhibitory concentration against M. tuberculosis” value is listed as “greater than 15 μM”. Besides, the “effect on Vero E6 cell viability” value in the data set with Vero E6 cells [5] is reported as “did not significantly reduce cell viability”. Besides, the IC50 with Vero E6 cells [5] is over 120 µM. In addition, the “reduction in IL-1β production” value in the data set with IL-1β stood at 59.82%.
